According to patent US9005670B2, “Use of histone acetyltransferase inhibitors as novel anti-cancer therapies” (The Johns Hopkins University, priority 2010, dated 2015):
“Also recorded” adds a separate entry of the source.

What was measured:
p300 HAT = biological target: T1, p300 HAT (Homo sapiens, UniProt Q09472, DEL1529-1560/M1652G); test: direct radioactive p300 HAT assay (14C-acetyl-CoA transfer to H4-15); format: biochemical
T1 construct: A variant of the HAT domain of p300 (residues 1287 to 1652) was expressed as a fusion; a C-terminal peptide corresponding to residues 1653-1666 of p300; made in house; host or cells: E. coli BL21(RIL)-DE3; C-terminal peptide by solid phase synthesis
T1 sequence (Q09472 with tags, fused parts or gaps DEL1529-1560/M1652G limits assumed): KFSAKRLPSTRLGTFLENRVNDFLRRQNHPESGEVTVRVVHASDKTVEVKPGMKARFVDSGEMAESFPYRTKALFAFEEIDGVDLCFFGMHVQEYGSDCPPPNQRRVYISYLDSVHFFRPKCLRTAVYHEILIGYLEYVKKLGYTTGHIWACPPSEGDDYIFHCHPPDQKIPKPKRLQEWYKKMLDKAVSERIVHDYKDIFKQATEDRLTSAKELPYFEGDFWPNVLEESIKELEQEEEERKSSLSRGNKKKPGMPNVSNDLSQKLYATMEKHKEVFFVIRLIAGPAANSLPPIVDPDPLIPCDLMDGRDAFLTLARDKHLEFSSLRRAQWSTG
Description: In this assay, production of ^14C-labeled Ac-H4-15 is monitored electrophoretically. Reactions were performed in 20 mM HEPES, pH 7.9, and contained 5 mM DTT, 80 μM EDTA, 40 μg/mL BSA, 100 μM H4-15, and 5 nM p300. […] Reactions were incubated at 30° C. for 10 minutes, initiated with addition of a 1:1 mixture of 12 C-acetyl-CoA and 14 C-acetyl-CoA to a final concentration of 20 μM, and allowed to run for 10 min at 30° C. Reactions are then quenched with addition of 14% SDS (w/v). Turnover was kept below 10%. All compounds were screened in duplicate. Samples were then loaded onto a 16% Tris-Tricine gel along with a BSA standard and run at 140 V for 90 minutes. Gels were washed and dried, and exposed in a PhosphorImager cassette for ˜2 days. Bands corresponding to Ac-H4-15 were then quantified using ImageQuant.
Reactions were performed in 20 mM HEPES, pH 7.9, and contained 5 mM DTT, 80 μM EDTA, 40 μg/mL BSA, 100 μM […], and 5 nM p300. Putative inhibitors were added over a range of concentrations, with DMSO concentration kept constant (<5%). Reactions were incubated at 30° C. for 10 minutes, then initiated with addition of a 1:1 mixture of ^12C-acetyl-CoA and ^14C-acetyl-CoA to 20 μM. After […] at 30° C., reactions were quenched with 14% SDS (w/v). All concentrations were screened in duplicate. Gels were run, washed, dried, and exposed to a PhosphorImager plate as described above, and production of Ac-H4-15 quantified. Data were fit to the following equation to obtain IC50s. […]

WM983A melanoma cells = test: 3H-thymidine incorporation, WM983A; settings: 20 μM, 24 hours
[1] = test system: histone H3 and H4 acetylation in C3H 10T1/2 mouse fibroblasts; test: histone acetylation Western blot in mouse cells; format: cell-based
Excerpt: Histones in mammalian cells show characteristic rates of turnover of acetylation, with a majority showing slower rates and a very minor fraction showing very fast turnover. This latter fraction has been associated with gene activation, and is defined by rapid hyperacetylation in the presence of deacetylase inhibitors such as Trichostatin A (TSA). In addition to SDS gels (FIG. 9A), Acid-Urea gels (AU, FIG. 9B) were used, on which loss of a positive charge upon lysine acetylation retards migration, producing a ladder of bands corresponding to integral changes in acetylation.
C3H 10T1/2 mouse fibroblasts were grown in DMEM with 10% FCS at 37° C. with 5% CO2. Confluent cultures were rendered quiescent in DMEM with 0.5% FCS for 18-20 h prior to treatment. […] Antibodies were used at the following concentrations: total H3 (1:10000; ab7834; Abcam); H4K12ac (1:2500; 06-761; Upstate). Rabbit anti-H3K9ac (1:10000) antibodies were generated in-house. Histones were isolated from cells by acid extraction, separated by SDS and acid-urea polyacrylamide gel electrophoresis and analyzed by Western blotting.

Mel-1 melanoma cells = test: combination with chemotherapy, total cell number; format: cell-based; settings: 48 hours
Description: The cells were grown for 24 hours in medium. The cells were given fresh medium and either 1 μM of cisplatin or 200 μM of temozolamide was added. Total cell number was counted on Day 0, at 24 hours, and 48 hours after addition of cisplatin or temozolamide.
After 24 hours, the treated and mock-treated cells were given fresh medium, and the cells were treated with cisplatin or temozolamide for 48 hours.

[2] = cells pre-treated with 2 μM C646 for 24 hours, then 1 μM cisplatin or 200 μM temozolamide
[3] = mock-treated cells, 1 μM cisplatin or 200 μM temozolamide

For `COC(=O)c1cc(C)c(C)cc1-c1ccc(/C=C2\C(=O)N(c3ccc(C(=O)O)cc3)N=C2C)o1` [Compound 6m, 4-(4,5-dihydro-4-((5-(4,5-dimethyl-2-methylbenzoate)furan-2-yl)methylene)-3-methyl-5-oxapyrazol-1-yl)benzoic acid], the “p300 HAT inhibition, result in words (analogs compared with C646)” value (p300 HAT) was “well tolerated” and the melting point was 254 to 256 °C.

In the case of `CC1=NN(c2ccc(C(=O)O)cc2)C(=O)/C1=C\c1ccc(-c2cc(C)c(C)cc2C#N)o1` [Compound 6o, 4-(4,5-dihydro-4-((5-(4,5-dimethyl-2-benzonitrile)furan-2-yl)methylene)-3-methyl-5-oxopyrazol-1-yl)-benzoic acid], the “p300 HAT inhibition, result in words (analogs compared with C646)” value (p300 HAT) was “well tolerated” and the melting point was 295 to 297 °C.

For `CC1=NN(c2ccc(C(=O)O)cc2)C(=O)/C1=C\c1ccc(-c2ccccn2)o1` [Compound 6p, 4-(4,5-dihydro-3-methyl-5-oxy-4-((5-(pyridin-2-yl)furan-2-yl)methylene)pyrazol-1-yl)benzoic acid], the “p300 HAT inhibition, result in words (analogs compared with C646)” value (p300 HAT) was “eliminated p300 inhibitory action” and the melting point was 294 to 296 °C.

For `COC(=O)c1cc(C)c(C)cc1-c1ccc(/C=C2/CC(=O)N(c3ccc(C(=O)O)cc3)C2=O)o1` [Compound 6r, 2-{5-[1-(4-Carboxy-phenyl)-2,5-dioxo-pyrrolidin-3-ylidenemethyl]-furan-2-yl}-4,5-dimethyl-benzoic acid methyl ester], the “p300 HAT inhibition, result in words (analogs compared with C646)” value (p300 HAT) was “retains potency for p300 inhibition” and the melting point was 290 to 291 °C.

For `CC1=NN(c2ccc(C(=O)O)cc2)C(=O)C1Cc1ccc(-c2cc(C)c(C)cc2[N+](=O)[O-])o1` (stereo not shown) [Compound C37, 4-{4-[5-(4,5-Dimethyl-2-nitro-phenyl)-furan-2-ylmethyl]-3-methyl-5-oxo-4,5-dihydro-pyrazol-1-yl}-benzoic acid], the “sensitivity of cell line to compound” value (WM983A melanoma cells) was “resistant”, the “p300 HAT inhibition, result in words (analogs compared with C646)” value (p300 HAT) was “does not detectably block p300 HAT activity; also recorded: did not detectably block p300 HAT activity; also recorded: devoid of p300 HAT inhibitory activity” and the “acetylation of H3 or H4, with and without TSA” value ([1]; 25 μM, 3 hours) was “no effect”.

In the case of `CC(/C=C/C(=O)NO)=C\[C@@H](C)C(=O)c1ccc(N(C)C)cc1` [TSA, Trichostatin A, reference compound], the “acetylation of H3 and H4” value ([1]; TSA 33 nM, 30 minutes) was “increased”.

In the case of `N.N.[Cl][Pt][Cl]` [cisplatin], the “decrease in cell number” value (Mel-1 melanoma cells; [2]) was 28% and the “decrease in cell number” value (Mel-1 melanoma cells; [3]) was 35%.

With `Cn1nnc2c(C(N)=O)ncn2c1=O` [temozolamide] the “decrease in cell number” value (Mel-1 melanoma cells; [2]) was 31% and the “decrease in cell number” value (Mel-1 melanoma cells; [3]) was 13%.
